Values joined by “and” are separate entries in the source; they are usually repeats but may differ in a detail not shown here. Equal values may be shown once.
Key:
[1] = Plasma level of BT062 (PK ELISA), repeated multiple dose; type: in vivo, human
Protocol: Theoretical Cmax was Calculated According to the Following Assumed Parameters: […]
The same evaluation was performed during treatment cycle 4.
The wells of a microtiter plate are first coated with anti-maytansinoid (anti-DM4) antibody overnight at 2-8° C. and after blocking with assay buffer (0.5% BSA/TBS) incubated on the next day with plasma samples. These are diluted beforehand at least 1:100 in assay buffer. […] After incubation, unbound material is removed by washing. […] Unbound secondary antibody is removed by another washing step. After this, TMB substrate solution is pipetted into all the wells. […] The color reaction is ended using a stop solution, which causes the color to change from blue to yellow. The final measurement is carried out with a photometer at a wavelength of 450 nm.
The relationship between concentration and optical density is evaluated using Magellan V6.6 software.

[2] = system: human derived breast cancer model with CD138 IHC score 2-3; assay: Breast cancer model, CD138 IHC score 2-3; type: in vivo, NMRI nude mice; details: 8 mg/kg once weekly
From the text: The results are shown in terms of the effect on the mean relative tumor volume in the model relative to an intravenous administration of PBS. For the calculation of the median relative tumor volume on day, see FIG. 33.

[3] = system: metastatic patient tissues derived from a bladder tumor; assay: Metastatic bladder tumor xenograft; type: in vivo, NMRI (nude) mice; details: both dose groups (4 mg/kg and 23.85 mg/kg once per week)
From the text: (§1) These tumors display similar characteristics as the patient tumors, since they are passaged in mice at low numbers, to retain original characteristics.
To investigate metastatic tumors, NMRI (nude) mice were implanted with a metastatic patient tissues derived from a bladder tumor (determined via IHC analysis as CD138 strong positive).

primary pancreatic tumor = assay: Example 9 xenograft (FIG. 38); type: in vivo, NMRI (nude) mice; details: 4 and 8 mg/kg once weekly; re-growth in treatment free period
From the text: The results are shown in terms of the effect on the mean relative tumor volume.

[4] = system: primary mammary tumor of a patient; assay: Mammary carcinoma xenograft; type: in vivo, NMRI (nude) mice; details: for T/C: day 21
[5] = system: plasma cell myeloma cell line L363; type: in vivo, NOD/SCID mice; details: 4 mg/kg BT062 alone, once weekly
Protocol: In this model, a highly aggressive CD138 expressing plasma cell myeloma cell line L363 was subcutaneously implanted into NOD/SCID mice. Treatment started when tumors reached a size of approx. 100 mm^3. […] Tumor size was measured once weekly.

[6] = Half life in human plasma ex vivo; type: in vitro ADME
[7] = system: pancreatic tumor tissue PAXF 736; assay: Pancreas carcinoma xenograft; type: in vivo, NMRI mice; details: for T/C (%): day 52
Protocol: as §1
Tumor diameters have been measured two times a week. Tumor volumes were calculated according to the formula axbxb/2 where “a” is the longest axis and “b” the perpendicular axis thereto.
Tumor inhibition for a particular day (T/C in %) was calculated from the ratio of the median RTV (relative tumor volume) values of test versus control groups multiplied by 100%.

[8] = system: human derived breast cancer model with CD138 IHC score 1-2; assay: Breast cancer model, CD138 IHC score 1-2; type: in vivo, NMRI nude mice; details: 1-4 mg/kg once weekly (FIG. 37)
From the text: No difference in the treatment regimens was observed. The results are shown in terms of the effect on the mean relative tumor volume in the model relative to an intravenous administration of PBS. For the calculation of the median relative tumor volume on day, see FIG. 33.

Lung carcinoma = Lung carcinoma xenograft; type: in vivo, NMRI (nude) mice; details: both dose groups (4 mg/kg and 23.85 mg/kg once per week)
Protocol: as §1
NMRI (nude) mice are implanted with a Lung carcinoma (determined via IHC analysis as CD138 strong positive).
Tumor diameters are measured two times a week.

[9] = system: MOLP8 multiple myeloma cells; assay: MOLP8 xenograft, combination BT062 and VELCADE; type: in vivo, mice
From the text: The ACTIVITY RATING is another measurement for the effects of a combination. This rating is based on the Log10 cell kill
where (T-C) or tumor growth delay, is the median time in days required for the treatment group (T) and the control group (C) tumours, to reach a predetermined size (600 mm^3).

## BT062
[1]; 40 mg/m^2 weekly
  % of theoretical Cmax, Mean (%): 33%
[1]; 40 mg/m^2 weekly, table rows = cycles C1 to C4
  Mean conc. missing to theor. Cmax per Cycle: 19.5
[1]; 50 mg/m^2 weekly
  % of theoretical Cmax, Mean (%): 33%
[1]; 50 mg/m^2 weekly, table rows = cycles C1 to C4
  Mean conc. missing to theor. Cmax per Cycle: 23.3
[1]; 65 mg/m^2 weekly
  % of theoretical Cmax, Mean (%): 60%
[1]; 65 mg/m^2 weekly, cycle/day C1 D1 to C3 D15
  % of theoretical Cmax: 43% and 63% and 72% and 52% and 61% and 71% and 73%
[1]; 65 mg/m^2 weekly, table rows = cycles C1 to C3
  Mean conc. missing to theor. Cmax per Cycle: 15.3
[1]; 80 mg/m^2, 2 hr after completion of administration on days 0, 7, 14
  Plasma level/Mean: 22910 ng/mL
[1]; 80 mg/m^2 weekly, cycle/day C1 D1 to C3 D15
  % of theoretical Cmax: 42% and 45% and 50% and 43% and 39% and 53% and 41%
[1]; 80 mg/m^2 weekly, table rows = cycles C1 to C3
  Mean conc. missing to theor. Cmax per Cycle: 30.3
[1]; 100 mg/m^2 weekly
  % of theoretical Cmax, Mean (%): 108%
[1]; 120 mg/m^2 weekly
  % of theoretical Cmax, Mean (%): 69%
[1]; 120 mg/m^2 weekly, cycle/day C1 D1 to C2 D15
  % of theoretical Cmax: 69% and 74% and 79% and 62% and 67%
[1]; 3×50 mg/m^2 on days 1, 8, 15
  actual Cmax as % of theoretical Cmax: < 50%
[2]
  tumor response: complete remission
[3]
  tumor response: Complete remission
Primary pancreatic tumor
  tumor response: complete remission
[4]; 1 mg/kg once weekly
  mice with complete remission without tumor regrowth: 3/7
  mice with partial remission: 2/7
  tumor response: tumor stasis
[4]; 13.25 mg/kg/4 mg/kg
  T/C: 0.0
[4]; 23.85 mg/kg
  T/C: 0.0
[4]; 4 and 2 mg/kg once weekly (FIG. 35)
  tumor response: complete remission
[4]; 39 days after the last administration
  tumor regrowth in treatment free observation period: no tumor regrowth
[4]; FIG. 9
  complete remission achieved after: 21 days
[4]; both treatment groups
  T/C value: below 10%
[4]; mouse, in vivo
  influence on body weight after each injection: no influence on body weight
[5]
  tumor growth: active in reducing the tumor growth
[6]
  plasma half life: 14 days
[7]; 13.25 mg/kg
  complete remission obtained, days after tumor implantation: 35 days
  mice alive after 52 days: 8/8
[7]; 13.25 mg/kg once weekly
  T/C (%): 0.0%
[7]; 23.85 mg/kg
  complete remission obtained, days after tumor implantation: 28 days
[7]; 23.85 mg/kg once weekly
  T/C (%): 0.0%
[7]; both treatment groups
  tumor regrowth in treatment free observation phase: no tumor regrowth
[7]; mouse, in vivo
  side effects: No side effects
[8]
  tumor response: did not respond
Lung carcinoma
  tumor response: Complete remission
[9]; BT062 100 ug/kg
  (T − C): 5.5 days
  Regressions Complete: 0/6
  Regressions Partial: 0/6
  Result: Inactive
  Tumor free survivors day 67: 0/6
  log cell kill: 0.5
[9]; BT062 100 ug/kg, Day 1
  T/C (%): 43%
[9]; BT062 200 ug/kg
  (T − C): 14.5 days
  Regressions Complete: 0/6
  Regressions Partial: 1/6
  Result: Active
  Tumor free survivors day 67: 0/6
  log cell kill: 1.3
[9]; BT062 200 ug/kg, Day 1
  T/C (%): 11%
[9]; BT062 400 ug/kg
  (T − C): 31.5 days
  Regressions Complete: 2/6
  Regressions Partial: 4/6
  Result: highly active (A Log10 cell kill of higher than 2.8)
  Tumor free survivors day 67: 0/6
  log cell kill: 2.8
[9]; BT062 400 ug/kg, Day 1
  T/C (%): 7%
[9]; last line: BT062 400 ug/kg
  (T − C): 36.5 days
  Regressions Complete: 0/6
  Regressions Partial: 6/6
  Result: highly active (A Log10 cell kill of higher than 2.8)
  Tumor free survivors day 67: 0/6
  log cell kill: 3.2
[9]; last line: BT062 400 ug/kg Day 1
  T/C (%): 7%

Source: patent publication US20190117770A1, “USES OF IMMUNOCONJUGATES TARGETING CD138” (Biotest AG, priority 2011, published 2019)
